We go through one compound from PMC10648541, “Design, Synthesis, and Antiproliferative Activity of Selective Histone Deacetylases 6 Inhibitors Containing a Tetrahydropyridopyrimidine Scaffold” (Molecules, 2023).

One assay has as its target T1, HDAC6 (Homo sapiens, UniProt Q9UBN7).
T1 construct: purchased Reaction Biology Corporation
T1 sequence (Q9UBN7 1-1215): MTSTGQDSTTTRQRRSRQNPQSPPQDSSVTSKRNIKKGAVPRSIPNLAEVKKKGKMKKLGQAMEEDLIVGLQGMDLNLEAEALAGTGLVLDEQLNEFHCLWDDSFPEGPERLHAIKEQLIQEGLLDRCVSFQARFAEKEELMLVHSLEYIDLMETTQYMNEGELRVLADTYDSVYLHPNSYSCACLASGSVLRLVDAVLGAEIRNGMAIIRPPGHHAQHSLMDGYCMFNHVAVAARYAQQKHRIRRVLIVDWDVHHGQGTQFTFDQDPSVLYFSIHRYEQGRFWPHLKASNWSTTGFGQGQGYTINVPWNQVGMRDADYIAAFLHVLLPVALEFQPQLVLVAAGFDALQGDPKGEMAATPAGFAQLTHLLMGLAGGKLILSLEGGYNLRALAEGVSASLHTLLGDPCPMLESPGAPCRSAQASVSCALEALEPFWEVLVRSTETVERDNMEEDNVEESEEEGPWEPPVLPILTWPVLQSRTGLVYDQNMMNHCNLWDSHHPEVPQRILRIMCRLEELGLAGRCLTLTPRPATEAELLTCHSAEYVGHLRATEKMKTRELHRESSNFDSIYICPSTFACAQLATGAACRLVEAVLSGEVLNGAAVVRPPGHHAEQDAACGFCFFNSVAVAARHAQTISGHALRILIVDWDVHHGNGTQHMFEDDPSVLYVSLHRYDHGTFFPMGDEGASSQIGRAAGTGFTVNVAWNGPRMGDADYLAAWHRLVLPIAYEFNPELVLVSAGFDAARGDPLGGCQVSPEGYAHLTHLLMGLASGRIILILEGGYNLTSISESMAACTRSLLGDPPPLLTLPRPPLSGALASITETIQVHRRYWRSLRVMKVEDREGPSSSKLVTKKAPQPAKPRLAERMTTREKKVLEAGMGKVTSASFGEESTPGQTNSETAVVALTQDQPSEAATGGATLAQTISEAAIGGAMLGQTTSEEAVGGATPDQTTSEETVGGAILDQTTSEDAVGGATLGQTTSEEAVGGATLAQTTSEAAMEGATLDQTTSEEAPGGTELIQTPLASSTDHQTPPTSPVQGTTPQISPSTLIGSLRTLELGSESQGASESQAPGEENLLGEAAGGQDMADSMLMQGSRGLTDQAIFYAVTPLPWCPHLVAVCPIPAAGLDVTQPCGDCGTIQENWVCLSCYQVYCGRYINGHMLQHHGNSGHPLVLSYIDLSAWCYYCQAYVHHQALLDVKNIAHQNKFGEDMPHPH
As to the kind of experiment: In vitro HDAC enzyme assay (Reaction Biology Corporation), HDAC6. Type of assay: biochemical.

A further assay deals with T2, HDAC3 (Homo sapiens, UniProt O15379).
T2 construct: purchased Reaction Biology Corporation
Description: In vitro HDAC enzyme assay (Reaction Biology Corporation), HDAC3. Type of assay: biochemical. To be noted: Table 2 isozyme screen; duplicate, SD < 15%.

Another assay relates to HL60. As to the kind of experiment: Antiproliferative assay (Alamar blue, 72 h), HL60. It counts as cell-based. Particulars: Homo sapiens, HL-60, HL60 cells, three independent experiments, SD < 10%, read-out: Antiproliferative effect IC50, HL60. On the technique in general: Alamar Blue is a resazurin reagent that responds to reducing activity.
Another assay deals with acetylated α-tubulin. As to the kind of experiment: Western blot, acetylated α-tubulin in RPMI-8226 cells. Type of assay: cell-based, human. To be noted: 24 h, 1, 5, and 10 μM. The procedure:
(§1) RPMI-8226 cells (1 × 10^6) were seeded overnight and incubated with compound 8f for 24 h on indicated concentrations. Cell extract was prepared by lysing cultured cells with a mammalian protein extraction reagent supplemented with EDTA-free protease inhibitor for 15 min. SDS-PAGE and immunoblot analysis were conducted as described. Antibodies for Ac-H3 (abcom, AB32129) and Ac-ɑ-tubulin (Cell Signaling, 2144) were used.
A general note: Immunoblotting shows a protein as a band on a membrane.

Assay [1] deals with acetylated histone 3 (H3). Description: Western blot, acetylated histone 3 in RPMI-8226 cells. It counts as cell-based, human. To be noted: 24 h, 1, 5, and 10 μM. The protocol:
as §1

The subject of the next assay is MOLT-4. Description: NCI-60 antiproliferative screening, MOLT-4. To be noted: Homo sapiens, MOLT-4 (Leukemia), read-out: Inhibition% values at 10 μM concentration. It counts as cell-based. From the text: (§2) Then, 8f was submitted to NCI for antiproliferative evaluation against 59 different tumor cell lines. The cancer types of the NCI-60 program include leukemia, non-small cell lung cancer (NSCLC), colon cancer, CNS cancer, melanoma, ovary cancer, renal cancer, prostate cancer, and breast cancer.

The next assay concerns SR. As to the kind of experiment: NCI-60 antiproliferative screening, SR. Type of assay: cell-based. Particulars: Homo sapiens, SR (Leukemia), read-out: Inhibition% values at 10 μM concentration.
Source text: as §2

In the next assay the test system is HOP-92. As to the kind of experiment: NCI-60 antiproliferative screening, HOP-92. It counts as cell-based. Particulars: Homo sapiens, HOP-92 (Non-Small Cell Lung Cancer), read-out: Inhibition% values at 10 μM concentration.
Source text: as §2

The subject of another assay is COLO 205. As to the kind of experiment: NCI-60 antiproliferative screening, COLO 205. Particulars: Homo sapiens, COLO 205 (Colon Cancer), read-out: Inhibition% values at 10 μM concentration. It counts as cell-based.
Source text: as §2

The test system of a further assay is HT29. Description: NCI-60 antiproliferative screening, HT29. It counts as cell-based. To be noted: Homo sapiens, HT-29, HT29 (Colon Cancer), read-out: Inhibition% values at 10 μM concentration.
Source text: as §2

The next assay has as its system SW-620. As to the kind of experiment: NCI-60 antiproliferative screening, SW-620. It counts as cell-based. Particulars: Homo sapiens, SW-620 (Colon Cancer), read-out: Inhibition% values at 10 μM concentration.
Source text: as §2

A further assay concerns SF-295. As to the kind of experiment: NCI-60 antiproliferative screening, SF-295. It counts as cell-based. To be noted: Homo sapiens, SF-295 (CNS Cancer), read-out: Inhibition% values at 10 μM concentration.
Source text: as §2

The subject of another assay is SK-MEL-2. Description: NCI-60 antiproliferative screening, SK-MEL-2. It counts as cell-based. Particulars: Homo sapiens, SK-MEL-2 (Melanoma), read-out: Inhibition% values at 10 μM concentration.
Source text: as §2

The next assay concerns OVCAR-5. As to the kind of experiment: NCI-60 antiproliferative screening, OVCAR-5. It counts as cell-based. Particulars: Homo sapiens, OVCAR-5 (Ovarian Cancer), read-out: Inhibition% values at 10 μM concentration.
Source text: as §2

A further assay relates to NCI/ADR-RES. As to the kind of experiment: NCI-60 antiproliferative screening, NCI/ADR-RES. It counts as cell-based. To be noted: Homo sapiens, NCI/ADR-RES (Ovarian Cancer), read-out: Inhibition% values at 10 μM concentration.
Source text: as §2

A further assay relates to TK-10. Description: NCI-60 antiproliferative screening, TK-10. Type of assay: cell-based. Particulars: Homo sapiens, TK-10 (Renal Cancer), read-out: Inhibition% values at 10 μM concentration.
Source text: as §2

For another assay, the system named is PC-3. Description: NCI-60 antiproliferative screening, PC-3. Type of assay: cell-based. To be noted: Homo sapiens, PC-3 (Prostate Cancer), read-out: Inhibition% values at 10 μM concentration.
Source text: as §2

A further assay deals with DU-145. As to the kind of experiment: NCI-60 antiproliferative screening, DU-145. It counts as cell-based. To be noted: Homo sapiens, DU-145 (Prostate Cancer), read-out: Inhibition% values at 10 μM concentration.
Source text: as §2

“Also recorded” adds a separate entry of the source. Bounds are passed on as bounds.

T2 sequence (O15379 whole entry): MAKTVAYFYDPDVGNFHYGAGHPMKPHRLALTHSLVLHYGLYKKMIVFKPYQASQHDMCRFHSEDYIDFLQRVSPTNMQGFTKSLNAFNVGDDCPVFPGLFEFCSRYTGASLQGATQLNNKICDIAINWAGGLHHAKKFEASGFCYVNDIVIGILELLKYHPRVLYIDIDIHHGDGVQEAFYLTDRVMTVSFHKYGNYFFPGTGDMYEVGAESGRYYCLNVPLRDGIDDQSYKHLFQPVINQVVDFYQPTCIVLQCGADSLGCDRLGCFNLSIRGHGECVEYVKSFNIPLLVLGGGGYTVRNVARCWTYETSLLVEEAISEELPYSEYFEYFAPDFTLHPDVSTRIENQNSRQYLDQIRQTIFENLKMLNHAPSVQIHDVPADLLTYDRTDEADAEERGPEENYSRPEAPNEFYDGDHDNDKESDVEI
T2 sequence (Q9Y618 395-489 partner limits assumed): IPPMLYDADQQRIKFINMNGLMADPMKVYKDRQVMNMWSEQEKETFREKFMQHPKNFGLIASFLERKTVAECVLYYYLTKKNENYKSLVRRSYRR

The IC50 is the point on the concentration scale where inhibition reaches its midpoint. For `COc1cccc(-c2nc3c(c(-c4cccc(OC)c4)n2)CCN(C(=O)CCCCCCC(=O)NO)C3)c1` [Compound 8f, 8-(2,4-Bis(3-methoxyphenyl)-5,8-dihydropyrido [3,4-d]pyrimidin-7(6H)-yl)-N-hydroxy-8-oxooctanamide], the “selectivity over other subtypes” value at HDAC6 (HDAC6 over other HDAC subtypes) was above 48 fold. For the same compound, the “Selectivity Index” value at HDAC6 (Table 1, HDAC6 against HDAC1) was found to be 48. Further, the IC50 on HDAC6 (Table 1, duplicate, SD < 15%) was found to be 6.4 nM; against HDAC3, 411 nM; in the assay on HL60 it was 3200 nM. The “levels of acetylated α-tubulin” value in the assay on acetylated α-tubulin is “increase the levels of acetylated α-tubulin in a dose-dependent manner; also recorded: elevated the levels of acetylated α-tubulin in a dose-dependent manner”. Further, the “levels of acetylated histone 3 (H3)” value in [1] was “only modest changes”. Moreover, the inhibition at 10 µM in the assay on MOLT-4 was determined as 87.7%; with SR, 84.3%; with HOP-92, 100%; with COLO 205, 100%; with HT29 it was 95.3%; in the assay on SW-620, 100%. Also, the inhibition at 10 µM worked out at 100% with SF-295; 100% in the assay on SK-MEL-2; 100% in the assay with OVCAR-5; 100% in the assay on NCI/ADR-RES; 100% in the assay with TK-10; 83.3% with PC-3. Further, the inhibition at 10 µM in the assay on DU-145 is 89.8%.
